Patent US5041567A, “Antibacterial monic acid derivatives” (Beecham Group plc, priority 1982, dated 1991)
Values after ≈ are worked out from the molar mass of the structure shown. Like-named read-outs stand apart in the source and are kept apart here.

Tests used:
M. suipneumoniae TAM 6N = experiment: MIC against mycoplasma in vitro; type: cell-based; settings: Mesomycoplasma hyopneumoniae, TAM6N, 144 h
M. suipneumoniae HK(2) = experiment: MIC against mycoplasma in vitro; type: cell-based; settings: Mesomycoplasma hyopneumoniae, 144 h
Strep. dysgalactiae SPD1 = experiment: MIC against veterinary bacteria in vitro; settings: Streptococcus dysgalactiae, SPD1, 18 h
Method: (§1) The activity of the compounds of the Examples against various veterinarily important bacteria, was assayed in vitro using two-fold serial dilutions in Diagnostic Sensitivity Test Agar inoculated with 10^4 organisms.

E. coli ESS = experiment: MIC against human bacteria in vitro; type: cell-based; settings: Escherichia coli; E. coli ESS; 5% chocolated horse blood agar, 18 hours; read-out: MIC
P. mirabilis 889 = experiment: MIC against human bacteria in vitro; type: cell-based; settings: Proteus mirabilis; P. mirabilis 889; 5% chocolated horse blood agar, 18 hours; read-out: MIC
[1] = test system: Pasteurella multocida 1633; experiment: MIC against human bacteria in vitro; type: cell-based; settings: Pasteurella multocida 1633; 5% chocolated horse blood agar, 18 hours; read-out: MIC
Strep. faecalis I = experiment: MIC against human bacteria in vitro; type: cell-based; settings: Enterococcus faecalis; Strep. faecalis I; 5% chocolated horse blood agar, 18 hours; read-out: MIC
Bord. bronchiseptica B09 = experiment: MIC against veterinary bacteria in vitro; settings: Bordetella bronchiseptica, B09, 18 h
Method: as §1

M. suipneumoniae LABER = experiment: MIC against mycoplasma in vitro; type: cell-based; settings: Mesomycoplasma hyopneumoniae, 144 h
Staph. aureus Oxford = experiment: MIC against human bacteria in vitro; type: cell-based; settings: Staphylococcus aureus; Staph. aureus Oxford; 5% chocolated horse blood agar, 18 hours; read-out: MIC
Staph. aureus Russell = experiment: MIC against human bacteria in vitro; type: cell-based; settings: Staphylococcus aureus; Staph. aureus Russell; 5% chocolated horse blood agar, 18 hours; read-out: MIC
Strep. spp. 64/848-C = experiment: MIC against human bacteria in vitro; type: cell-based; settings: Strep. spp. 64/848-C; 5% chocolated horse blood agar, 18 hours; read-out: MIC
E. coli E1 = experiment: MIC against veterinary bacteria in vitro; settings: Escherichia coli, E1, 18 h
Method: as §1

Bacillus subtilis 6633 = experiment: MIC against human bacteria in vitro; type: cell-based; settings: Bacillus subtilis 6633; 5% chocolated horse blood agar, 18 hours; read-out: MIC
Strep. pneumoniae CN33 = experiment: MIC against human bacteria in vitro; type: cell-based; settings: Streptococcus pneumoniae; Strep. pneumoniae CN33; 5% chocolated horse blood agar, 18 hours; read-out: MIC
Sarcina lutea 8340 = experiment: MIC against human bacteria in vitro; type: cell-based; settings: Micrococcus luteus; Sarcina lutea 8340; 5% chocolated horse blood agar, 18 hours; read-out: MIC
Staph. aureus W2827 = experiment: MIC against human bacteria in vitro; type: cell-based; settings: Staphylococcus aureus; Staph. aureus W2827; 5% chocolated horse blood agar, 18 hours; read-out: MIC
M. hyorhinis ATCC 23234 = experiment: MIC against mycoplasma in vitro; type: cell-based; settings: Mesomycoplasma hyorhinis, ATCC23234, 144 h
[2] = test system: Strep. suis (group D) SPS11; experiment: MIC against veterinary bacteria in vitro; settings: Streptococcus suis, 18 h
Method: as §1

Strep. agalactiae 2788-B = experiment: MIC against human bacteria in vitro; type: cell-based; settings: Streptococcus agalactiae; Strep. agalactiae 2788-B; 5% chocolated horse blood agar, 18 hours; read-out: MIC
Past. multocida PA2 = experiment: MIC against veterinary bacteria in vitro; settings: Pasteurella multocida, PA2, 18 h
Method: as §1

M. hyorhinis ATCC 25021 = experiment: MIC against mycoplasma in vitro; type: cell-based; settings: Mesomycoplasma hyorhinis, ATCC25021, 144 h
[3] = test system: Corynebacterium xerosis 9755; experiment: MIC against human bacteria in vitro; type: cell-based; settings: Corynebacterium xerosis 9755; 5% chocolated horse blood agar, 18 hours; read-out: MIC
K. aerogenes A = experiment: MIC against human bacteria in vitro; type: cell-based; settings: Klebsiella aerogenes; K. aerogenes A; 5% chocolated horse blood agar, 18 hours; read-out: MIC
Bord. bronchiseptica B08 = experiment: MIC against veterinary bacteria in vitro; settings: Bordetella bronchiseptica, B08, 18 h
Method: as §1

Past. multocida PA1 = experiment: MIC against veterinary bacteria in vitro; settings: Pasteurella multocida, PA1, 18 h
Method: as §1

[4] = test system: M. suipneumoniae PW/C/210; experiment: MIC against mycoplasma in vitro; type: cell-based; settings: Mesomycoplasma hyopneumoniae, 144 h
[5] = test system: M. suipneumoniae ATCC 25095; experiment: MIC against mycoplasma in vitro; type: cell-based; settings: Mesomycoplasma hyopneumoniae, ATCC25095, 144 h
M. suipneumoniae MS 16 = experiment: MIC against mycoplasma in vitro; type: cell-based; settings: Mesomycoplasma hyopneumoniae, MS16, 144 h
M. suipneumoniae UCD 1 = experiment: MIC against mycoplasma in vitro; type: cell-based; settings: Mesomycoplasma hyopneumoniae, UCD1, 144 h
[6] = test system: Staph. aureus B4 (pen. resistant); experiment: MIC against veterinary bacteria in vitro; settings: Staphylococcus aureus, 18 h
Method: as §1

M. dispar NCTC 10125 = experiment: MIC against mycoplasma in vitro; type: cell-based; settings: 144 h
E. coli NCTC 10418 = experiment: MIC against human bacteria in vitro; type: cell-based; settings: Escherichia coli, NCTC10418; E. coli NCTC 10418; agar with 5% chocolated horse blood, 18 hours, 37° C.; read-out: MIC
S. dublin S7 = experiment: MIC against veterinary bacteria in vitro; settings: Salmonella enterica, S7, 18 h
Method: as §1

Strep. agalactiae SPA1 = experiment: MIC against veterinary bacteria in vitro; settings: Streptococcus agalactiae, SPA1, 18 h
Method: as §1

SMILES	MIC (M. suipneumoniae TAM 6N)	MIC (M. suipneumoniae HK(2))	MIC (Strep. dysgalactiae SPD1)	MIC (E. coli ESS)	MIC (P. mirabilis 889)	MIC [1]	MIC (Strep. faecalis I)	MIC (Bord. bronchiseptica B09)	MIC (M. suipneumoniae LABER)	MIC (Staph. aureus Oxford)	MIC (Staph. aureus Russell)	MIC (Strep. spp. 64/848-C)	MIC (E. coli E1)	MIC (Bacillus subtilis 6633)	MIC (Strep. pneumoniae CN33)	MIC (Staph. aureus W2827)	MIC (M. hyorhinis ATCC 23234)	MIC [2]	MIC (Strep. agalactiae 2788-B)	MIC (Past. multocida PA2)	further results
COc1ccc(-c2cnc(/C=C(\C)C[C@@H]3OC[C@H](C[C@@H]4O[C@H]4[C@@H](C)[C@H](C)O)[C@@H](O)[C@H]3O)o2)cc1 [Example 4, 5-p-methoxyphenyl-2-(1-normon-2-yl)oxazole A]	1 µg/mL (≈ 2.11 µM)	1 µg/mL (≈ 2.11 µM)	1.25 µg/mL (≈ 2.64 µM)	2.5 µg/mL (≈ 5.28 µM)	> 100 µg/mL	25 µg/mL (≈ 52.8 µM)	> 100 µg/mL	20 µg/mL (≈ 42.2 µM)	0.5 µg/mL (≈ 1.06 µM)	2.5 µg/mL (≈ 5.28 µM)	5 µg/mL (≈ 10.6 µM)	5 µg/mL (≈ 10.6 µM)	> 80 µg/mL	5 µg/mL (≈ 10.6 µM)	5 µg/mL (≈ 10.6 µM)	5 µg/mL (≈ 10.6 µM)	0.5 µg/mL (≈ 1.06 µM)	20 µg/mL (≈ 42.2 µM)	5 µg/mL (≈ 10.6 µM)	5 µg/mL (≈ 10.6 µM)	MIC (Sarcina lutea 8340): > 100 µg/mL; MIC (M. hyorhinis ATCC 25021): 0.5 µg/mL (≈ 1.06 µM); MIC [3]: > 100 µg/mL; MIC (K. aerogenes A): > 100 µg/mL; MIC (Bord. bronchiseptica B08): > 80 µg/mL; MIC (Past. multocida PA1): 5 µg/mL (≈ 10.6 µM); MIC [4]: 0.5 µg/mL (≈ 1.06 µM); MIC [5]: 0.5 µg/mL (≈ 1.06 µM); MIC (M. suipneumoniae MS 16): 0.5 µg/mL (≈ 1.06 µM); MIC (M. suipneumoniae UCD 1): 1 µg/mL (≈ 2.11 µM); MIC [6]: 5 µg/mL (≈ 10.6 µM); MIC (M. dispar NCTC 10125): 0.25 µg/mL (≈ 0.528 µM); MIC (E. coli NCTC 10418): > 100 µg/mL; MIC (S. dublin S7): > 80 µg/mL
C/C(=C\c1ncc(-c2ccc(Br)cc2)o1)C[C@@H]1OC[C@H](C[C@@H]2O[C@H]2[C@@H](C)[C@H](C)O)[C@@H](O)[C@H]1O [Example 18, 5-p-Bromophenyl-2-(1-normon-2-yl) oxazole A]	1 µg/mL (≈ 1.91 µM)	1 µg/mL (≈ 1.91 µM)	0.156 µg/mL (≈ 0.299 µM)	8 µg/mL (≈ 15.3 µM)	> 128 µg/mL	16 µg/mL (≈ 30.6 µM)	> 128 µg/mL	10 µg/mL (≈ 19.1 µM)	0.25 µg/mL (≈ 0.479 µM)	2 µg/mL (≈ 3.83 µM)	8 µg/mL (≈ 15.3 µM)	4 µg/mL (≈ 7.66 µM)	> 80 µg/mL	1 µg/mL (≈ 1.91 µM)	4 µg/mL (≈ 7.66 µM)	8 µg/mL (≈ 15.3 µM)	0.25 µg/mL (≈ 0.479 µM)	10 µg/mL (≈ 19.1 µM)	8 µg/mL (≈ 15.3 µM)	1.25 µg/mL (≈ 2.39 µM)	MIC (M. hyorhinis ATCC 25021; M. hyorhinis ATCC 25021, 6 days, 37° C., read-out: MIC): 0.5 µg/mL (≈ 0.957 µM); MIC [3]: > 128 µg/mL; MIC (Strep. agalactiae SPA1): 0.625 µg/mL (≈ 1.2 µM); MIC (K. aerogenes A): > 128 µg/mL; MIC (Bord. bronchiseptica B08): 40 µg/mL (≈ 76.6 µM); MIC (Past. multocida PA1): 10 µg/mL (≈ 19.1 µM); MIC [4]: 0.25 µg/mL (≈ 0.479 µM); MIC ([5]; M. suipneumoniae ATCC 25095, 6 days, 37° C., read-out: MIC): 0.5 µg/mL (≈ 0.957 µM); MIC (M. suipneumoniae MS 16): 0.25 µg/mL (≈ 0.479 µM); MIC (M. suipneumoniae UCD 1; M. suipneumoniae UCD 1, 6 days, 37° C., read-out: MIC): 0.5 µg/mL (≈ 0.957 µM); MIC [6]: 0.156 µg/mL (≈ 0.299 µM); MIC (M. dispar NCTC 10125): 0.25 µg/mL (≈ 0.479 µM); MIC (E. coli NCTC 10418): > 128 µg/mL; MIC (S. dublin S7): > 80 µg/mL
C/C(=C\c1cc(C)on1)C[C@@H]1OC[C@H](C[C@@H]2O[C@H]2[C@@H](C)[C@H](C)O)[C@@H](O)[C@H]1O [Example 33, 5-Methyl-3-(1-normon-2-yl) isoxazole A]	2.5 µg/mL (≈ 6.55 µM)	2.5 µg/mL (≈ 6.55 µM)	5 µg/mL (≈ 13.1 µM)	8 µg/mL (≈ 21 µM)	> 128 µg/mL	2 µg/mL (≈ 5.24 µM)	> 128 µg/mL	> 80 µg/mL	2.5 µg/mL (≈ 6.55 µM)	8 µg/mL (≈ 21 µM)	8 µg/mL (≈ 21 µM)	32 µg/mL (≈ 83.9 µM)	> 80 µg/mL	1 µg/mL (≈ 2.62 µM)	32 µg/mL (≈ 83.9 µM)	8 µg/mL (≈ 21 µM)	1 µg/mL (≈ 2.62 µM)	> 80 µg/mL	64 µg/mL (≈ 168 µM)	0.625 µg/mL (≈ 1.64 µM)	MIC (M. hyorhinis ATCC 25021): 1 µg/mL (≈ 2.62 µM); MIC [3]: > 128 µg/mL; MIC (Strep. agalactiae SPA1): 10 µg/mL (≈ 26.2 µM); MIC (K. aerogenes A): > 128 µg/mL; MIC (Bord. bronchiseptica B08): > 80 µg/mL; MIC (Past. multocida PA1): 1.3 µg/mL (≈ 3.41 µM); MIC [5]: 1 µg/mL (≈ 2.62 µM); MIC (M. suipneumoniae MS 16): 1 µg/mL (≈ 2.62 µM); MIC (M. suipneumoniae UCD 1): 1 µg/mL (≈ 2.62 µM); MIC [6]: 1.3 µg/mL (≈ 3.41 µM); MIC (M. dispar NCTC 10125; M. dispar NCTC 10125, 6 days, 37° C., read-out: MIC): 0.5 µg/mL (≈ 1.31 µM); MIC (E. coli NCTC 10418): > 128 µg/mL; MIC (S. dublin S7): > 80 µg/mL
